Measured values taken from PubChem BioAssay AID179 (DTP/NCI, 2004).
pEC50, pIC50: −log10 of the molar value. Active and inactive are the calls of the source.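 Rule for the calls: active = compounds giving half or more protection of infected cells from virus-caused growth loss, again on retest; inactive = the rest.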 Where a SMILES comes first, the peptide text is derived from it.

Tested on: CEM cells HIV-1 protection, formazan growth assay
Assay: NCI AIDS Antiviral Assay
Conditions: for pIC50: measured here: growth of uninfected CEM cells
Outline: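 Screen of anti-HIV-1 activity in human CEM cells using a formazan-based growth measurement at five drug concentrations. Hits with 50% or greater protection were repeated, and confirmation required reproducible complete protection.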

Row | Structure (SMILES) | pEC50 | pIC50 | outcome
1 | Cc1ccc2oc(=O)c(-c3ccccc3)nc2c1 | < 4.66 | < 4.66 | 
2 | CCC(C)(C)c1ccc(OP(=S)(S)Oc2ccc(C(C)(C)CC)cc2)cc1 | < 3.70 | 4.43 | 
3 | CC(=O)c1cccc(NC(=O)/C(=N\NC(=S)NN)C2C(=O)Nc3ccccc3S2=O)c1 (stereo not drawn) | < 3.55 | < 3.55 | 
4 | CC1(C)[C@H]2CC[C@]1(C)[C@H](OC(=O)NNC(=O)O[C@@H]1C[C@@H]3CC[C@@]1(C)C3(C)C)C2 | < 3.70 | 4.90 | 
5 | O=C1[C@@H]2C(c3ccccc3[N+](=O)[O-])=NO[C@@H]2C(=O)N1c1ccc(Cc2ccc(N3C(=O)[C@H]4C(c5ccccc5[N+](=O)[O-])=NO[C@H]4C3=O)cc2)cc1 | < 4.70 | < 4.70 | 
6 | CCOc1ccc2nc(NC(=O)C3C4CCC(O4)C3C(=O)O)sc2c1 (stereo not drawn) | < 3.70 | 3.87 | 
7 | CCCCCCCCCCCCCCCCC(c1ccc(O)c(C(=O)O)c1)c1ccc(O)c(C(=O)O)c1 | < 3.64 | 4.04 | 
8 | CC(=O)OCC1OC(n2cc(F)c(=O)[nH]c2=O)C(NC(=O)N(CCCl)N=O)C(OC(C)=O)C1OC(C)=O (stereo not drawn) | < 3.34 | 4.18 | 
9 | COC1c2ccccc2CC(c2ccccc2)=NN1C(C)=O (stereo not drawn) | < 4.05 | 4.29 | 
10 | COc1cc(C2C(Cl)C(=O)N2NC(=O)c2ccc(N)cc2)cc(Br)c1O (stereo not drawn) | < 3.70 | 4.88 | 
11 | Cc1nc(C)c(N2CCN(S(=O)(=O)N(Cc3ccccc3)Cc3ccccc3)CC2)c(=O)[nH]1 | < 3.70 | < 3.70 | 
12 | COc1ccc(C(C#N)NNc2nc(C)cc(=O)[nH]2)cc1OC (stereo not drawn) | < 3.10 | 3.63 | 
13 | C=C1CC(CC)(CCN2C(=O)c3ccccc3C2=O)OC1=O (stereo not drawn) | < 3.68 | 4.98 | 
14 | CC(C)(Oc1ccc(Cl)cc1)C(=O)N(C(=O)N1CCC(c2ccccc2)CC1)c1ccccc1 | < 3.70 | 5.13 | 
15 | CC(C)C(NCc1c2ccccc2[n+](C)c2ccccc12)C(=O)O (stereo not drawn) |  |  | inactive
16 | c1ccc(Nc2nnc(CSc3nc(-c4ccccc4)c(-c4ccccc4)[nH]3)s2)cc1 | < 4.09 | 4.14 | 
17 | C/C(=N\N=C(/[Se])N1CCCCCC1)c1ccccn1 | < 4.09 | 6.97 | 
18 | COc1ccc(OC)c(/C=N/N=C(\N)NO)c1 | < 3.22 | 3.94 | 
19 | COc1ccc(OCc2ccc3nc(-c4ccccc4)c(Cl)nc3c2)cc1 | < 3.70 | 4.69 | 
20 | COc1cc(C=NC2CCCCC2)cc(OC)c1OC | < 3.74 | 4.02 | 
21 | N#C/C(=C\c1ccc(O)c(O)c1)C(=O)NCCCCNC(=O)/C(C#N)=C/c1ccc(O)c(O)c1 | < 3.70 | 4.62 | 

Row | Structure (SMILES) | pEC50 | pIC50 | outcome
22 | CCC(C)COC(=O)c1ccc(N=Cc2ccc(C=Nc3ccc(C(=O)OCC(C)CC)cc3)cc2)cc1 (stereo not drawn) | < 5.55 | < 5.55 | 
23 | O=NCC(=O)OCc1ccccc1 | < 3.70 | < 3.70 | 
24 | Cc1cc(S(=O)(=O)Nc2n[nH]c(Nc3ccccc3)n2)c(SCC(=O)O)cc1Cl | < 3.70 | < 3.70 | 
25 | CCCCCCSSCCCCCC | < 3.70 | < 3.70 | 
26 | OCCN1CCN2C=C(C3CCCC4N(CCO)CCN34)CCC21 (stereo not drawn) | < 3.13 | 4.47 | 
27 | CC(C)(C)OC(=O)NC1CCC[C@H]1O (stereo partly drawn) |  |  | inactive
28 | COc1ccccc1N1C(=O)CC(=O)N(C(=O)CCCCCCCCC(=O)N2C(=O)CC(=O)N(c3ccccc3OC)C2=S)C1=S | < 3.70 | 4.02 | 
29 | O=C1CC2SC(COCc3ccccc3)(CCN2Cc2ccccc2)C1 (stereo not drawn) |  | 4.38 | inactive
30 | C/C=C/C=Nc1c(C#N)c2n(c1C(=O)Nc1ccccc1)CCC2 | < 4.00 | < 4.00 | 
31 | C[C@@]1(CO)OC(=O)N2CCC[C@H]21 | < 2.84 | < 2.84 | 
32 | COc1ccc(C(=O)C/C(=N/NC(N)=S)C(=O)Nc2ccccc2)cc1 | < 4.60 | < 4.60 | 
33 | O=c1[nH]nc(-c2ccccc2)n1/N=C/c1cccc([N+](=O)[O-])c1 | < 3.70 | 4.61 | 
34 | CC12CP(=O)(c3ccccc3)CC1C2(Cl)Cl (stereo not drawn) |  |  | inactive
35 | O=[N+]([O-])/C=C1\COCc2cc3c(cc21)OCO3 | < 3.70 | 4.54 | 
36 | Cc1oc2c(C)c3oc(=O)cc(C)c3cc2c1CN | < 4.30 | 5.15 | 
37 | Clc1cc2nc(C3CCCO3)[nH]c2cc1Cl (stereo not drawn) | < 3.70 | 4.18 | 
38 | Nc1ncc(N)c(NCC2(CO)CC(CCc3ccccc3)C2)n1 (stereo not drawn) | < 3.70 | 5.31 | 
39 | Cc1cc(NS(=O)(=O)c2ccc(Nc3c4ccccc4nc4c(C(=O)NCCN(C)C)ccc(Cl)c34)cc2)no1 |  |  | inactive
40 | CCOC(=O)C(C)c1c(C(=O)c2ccc(C)nc2)c2ccccc2n1C (stereo not drawn) |  |  | inactive
41 | COc1cc2c(cc1OC)CC(N=[N+]=[N-])c1cc(OC)c(OC)cc1/C=C\2 (stereo not drawn) | < 3.70 | 4.15 | 
42 | C=C1SC(=Nc2ccc(Cl)cc2)N(c2nc(Cl)nc(Cl)n2)C12CCCCC2 | < 4.00 | < 4.00 | 

Row | Structure (SMILES) | pEC50 | pIC50 | outcome
43 | O=C1OCCC1(Cc1ccc(Cl)cc1)Cc1ccc(Cl)cc1 | < 4.53 | < 4.53 | 
44 | CCCCCCCCCCCC(=O)OCCNC(=O)C[n+]1ccccc1 | < 3.70 | < 3.70 | 
45 | Cc1cc2c(cc1C)C(=O)/C(=N/Nc1ccc(F)cc1)CCO2 | < 3.70 | 3.75 | 
46 | CCOC12SC(=Nc3ccc(C)cc3)NN1C(=S)N(C)N=C2C (stereo not drawn) | < 3.70 | < 3.70 | 
47 | Oc1ccc2ccccc2c1Br | < 3.70 | 3.79 | 
48 | COC(=O)c1c2c(cc3c1CC1(Cc4cc5c(cc4C1)CCC5)C3)CCC2 | < 3.70 | < 3.70 | 
49 | CC1SCc2nc3ccccc3n21 (stereo not drawn) | < 3.70 | < 3.70 | 
50 | CC(=O)Nc1cc(NC(C)=O)c(N=O)c(NC(C)=O)n1 |  |  | inactive
51 | O=C1NC(c2cccs2)N2C(=O)NC(c3cccs3)N12 (stereo not drawn) | < 3.70 | 3.84 | 
52 | NC1=NN(c2ccccc2)C(=O)C1C(=O)CCC(=O)Nc1cccc(Cl)c1 (stereo not drawn) | < 3.47 | < 3.47 | 
53 | COC(=O)c1cc(C(c2cc(C(=O)OC)c(O)c(Br)c2C)C(Cl)(Cl)Cl)c(C)c(Br)c1O | < 3.70 | 3.95 | 
54 | O=[N+]([O-])c1ccc(N/N=C2\C=CCCC2)c([N+](=O)[O-])c1 | < 3.70 | < 3.70 | 
55 | CC(C)(C)[Si](C)(C)OC1C(C/[N+]([O-])=N\Nc2ccc([N+](=O)[O-])cc2)OC(n2ccc(=O)[nH]c2=O)C1O[Si](C)(C)C(C)(C)C (stereo not drawn) | < 3.70 | 5.71 | 
56 | Cc1ccc(S(=O)(=O)NC(=O)n2ccnc2C)cc1 | < 3.05 |  | 
57 | c1ccc(C2=NNc3cccc[n+]3C2)cc1 | < 3.06 | 3.35 | 
58 | COc1ccc2c(ccc3[nH]c4c(C)cnc(NCCCN(C)C)c4c32)c1 | < 5.70 | 6.88 | 
59 | C1CSCCSCCCS[C@@H]2CCCCC2SC1 (stereo partly drawn) | < 4.00 | < 4.00 | 
60 | CC(C)(CN(Cc1ccccc1)Cc1ccccc1)[N+](=O)[O-] |  |  | inactive
61 | O/N=C1/COC(C(F)(F)F)(C(F)(F)F)C1 | < 3.70 | < 3.70 | 
62 | CCCCN(CCCC)C1=Nc2ccccc2-n2c(nnc2C(=O)OCC)C1 | < 3.70 | 4.38 | 
63 | Nc1ccc2c(c1)CN1C(=O)c3ccccc3C1=N2 | < 4.82 | 5.53 | 

Row | Structure (SMILES) | pEC50 | pIC50 | outcome
64 | O=c1oc2ccccc2c(O)c1C(c1cccs1)c1c(O)c2ccccc2oc1=O | < 3.70 | 4.52 | 
65 | Cc1cc(N(CCC#N)CCC#N)ccc1/C=C1/CN(N2C(=O)/C(=C/c3ccc(N(CCC#N)CCC#N)cc3C)N=C2c2ccccc2)C(c2ccccc2)=N1 | < 5.30 | < 5.30 | 
66 | O=C1C(Cl)C(c2ccccc2O)N1n1cnc2ccccc2c1=O (stereo not drawn) | < 4.84 | < 4.84 | 
67 | C=CC1(c2ccc(-c3ccccc3)cc2)OCCO1 | < 3.70 | 4.09 | 
68 | COc1ccc(N(CC(=O)O)S(=O)(=O)c2ccccc2)cc1 |  |  | inactive
69 | Cc1cc(Cl)c(O)c(C(=O)C(=O)C(O)c2ccc3c(c2)OCO3)c1 (stereo not drawn) | < 3.70 | 5.61 | 
70 | C[C@H](CCc1nc(C#N)c(N)o1)[C@H]1CC[C@H]2[C@@H]3[C@@H](O)CC4C[C@@H](O)CC[C@]4(C)[C@H]3C[C@@H](O)[C@]12C (stereo partly drawn) | < 3.70 | 4.78 | 
71 | OCC(O)C(OC1OC(CO)C(O)C(O)C1O)c1nn(-c2ccccc2)c2nc3cc(Cl)c(Cl)cc3cc12 (stereo not drawn) |  |  | inactive
72 | O=C1c2ccccc2C(=O)c2sc(Nc3ccc(Cl)c(Cl)c3)nc21 | < 4.72 | 4.80 | 
73 | CC12CCC(=O)N1c1ccccc1N2 (stereo not drawn) | < 3.30 | < 3.30 | 
74 | COC(=O)c1cc(C(=CCCC(C)[C@H]2CCC3C4CC[C@@H]5CC(F)(F)CC[C@]5(C)C4CC[C@@]32C)c2cc(Cl)c(OC)c(C(=O)OC)c2)cc(Cl)c1OC (stereo partly drawn) | < 4.00 | < 4.00 | 
75 | CC(NC(=O)CNC(=O)C(N)CO)C(=O)NC(CCC(=O)O)C(=O)NC(CCCCN)C(=O)NC(C(=O)NC(CCC(N)=O)C(=O)NC(CCC(=O)O)C(=O)NC(CCC(N)=O)C(=O)NC(CCCN=C(N)N)C(=O)NC(C)C(=O)NC(CC(N)=O)C(=O)NC(C)C(=O)NC(Cc1cnc[nH]1)C(=O)NC(CO)C(=O)O)C(C)O (stereo not drawn) (H-SGAEKTQEQRANAHS-OH; configuration not given here) | < 4.00 | < 4.00 | 
76 | O=S(=O)(O)SCCNCC(O)C(O)CNCCSS(=O)(=O)O (stereo not drawn) | < 3.21 | 3.92 | 
77 | Cc1ccc(C)c(N2C(=O)C(=O)C(c3nc4ccccc4s3)C(=Nc3cccc4c(=O)[nH][nH]c(=O)c34)C2=O)c1 (stereo not drawn) |  |  | inactive
78 | Brc1ccc2noc(-c3ccccc3)c2c1 | < 5.14 | < 5.14 | 
79 | COc1ccccc1NC(=O)/C(=C/n1c(=S)sc2ccccc21)C(C)=O | < 3.70 | 3.94 | 
80 | CN1C(=O)c2ccccc2C1(N)c1ccccc1 (stereo not drawn) | 3.18 | 3.06 | 
81 | CC(C)(C)OC(=O)NC(CCCCNC(=O)OCc1ccccc1)C(=O)NCCNc1ccc(NCCNC(=O)C(CCCCNC(=O)OCc2ccccc2)NC(=O)OC(C)(C)C)c2c1C(=O)c1ccccc1C2=O (stereo not drawn) | < 3.82 | 5.07 | 
82 | CO/N=C1\CC(NC(=O)CNC(=O)OC(C)(C)C)c2ccsc21 (stereo not drawn) | < 3.70 | < 3.70 | 
